# Data published in patent EP1477475A1, “Compounds for use as a medicine increasing the contractility of a heart, a heart muscle or cells of a heart muscle” (Procorde GmbH, priority 2003, dated 2004).
# Entries after “also recorded” stand apart in the source; their conditions may differ.
# Experiments:
# [1] = system: isolated rabbit cardiomyocytes; assay: Measurement of cell shortening of isolated cardiomyocytes; format: cell-based; settings: Figure 10; 10 µM COM1 for 10 minutes, then isoproterenol 1x10^-9 - 1x10^-7M; n = 8 cells per group
# Protocol: Female New Zealand White rabbits (12 weeks old) were anesthesized with thiopental (75-1 00mg/kg) and 500 U heparin were injected intravenously. The thorax was opened and the heart was excised and put into ice-cold NaCl solution (0.9%). Fat and pericardium were removed. The aorta was attached to a perfusion system connected to a pump and the heart was retrogradely pefused at a flow rate of 20-40 ml/min with oxygenated (95% oxygen, 5% CO2) Powell medium (110mM NaCl, 2.5mM KCI, KH2PO4 1.2 mM, MgSO4 1.2 mM, NaHCO3 25 mM, Glucose 11 mM; pH 7.4) until all blood was washed out. […]
# Cell shortening was measured with an electro-optical monitoring system connected to an online digitalized assessment of amplitude and velocity of shortening and relaxation (Scientific Instruments). […] Cell shortening was monitored using an edge detection camera and the data were transferred to a computer and fractional shortening was calculated for a single cell.
# Overexpression of proteins which can bind Gβγ subunits, such as phosducin or the C-terminus of GRK-2, result in an increased contractility of cardiomyocytes. Therefore, the compounds' effects on this important parameter were determined. In isolated rabbit cardiomyocytes, basal, compound-incubated and isoproterenol- stimulated contractility were measured and expressed as fractional shortening of the single cell.
# [2] = system: Gβγ-dependent activity of G protein-coupled receptor kinase 2 (GRK-2); assay: Rhodopsin phosphorylation assay (Gβγ-dependent GRK-2 activity); format: biochemical, bovine
# Protocol: All substances derived from the virtual screen were tested for their ability to inhibit the Gβγ-dependent activity of G protein-coupled receptor kinase 2 (GRK-2) in a rhodopsin phosphorylation assay. Stock solutions of 10mM of all compounds were dissolved in DMSO, for all assays (in vitro and cellular) DMSO was added in the same amount to the respective control group. The initial compound screen was carried out in a 96 well plate formate. The assay mix contained 15µM ATP, 10mM MgCl2, 20nM Gβγ (from bovine brain), 60nM GRK-2(purified from baculoviral culture), ^32P-ATP (approximately 200.000 cpm/assay point) and 10µM of the respective compound in 50µl assay buffer (20mM Hepes pH 7.2, 2mM EDTA); 600nM rhodopsin (purified from bovine retina) was added in the dark. Stimulation was achieved by incubation for 10-15 min under yellow light. Subsequently, the mix was aspirated with a cell harvester and applied onto a glass-fiber membrane (GF/C); then, the assay plate was washed 10 times with 10ml assay buffer each. The membrane was counted in a Wallac counter (Cerenkov). Additionally, 45µl of the assay mix were counted to determine the total amount of radioactivity in the assay. […]
# To test the ability of the compounds to inhibit Gβγ-dependent signalling a rhodopsin phosphorylation assay may be used. […] The effect of different compound concentrations may be determined in the same assay. […]
# [3] = system: native M1 receptor in HEK 293 cells; assay: Calcium measurements (Fura-2) in HEK 293 cells after carbachol (Gq-coupled pathway); format: cell-based; settings: Figure 8; 30 µM compound, 30 minutes pre-incubation; 100 µM carbachol
SMILES,"Isoproterenol-stimulated contractility (fractional shortening, contraction amplitude) [1]","Reversal of inhibition of Gβγ-dependent GRK-2 activity by increasing concentrations of the substrate rhodopsin ([2]; Figure 4, GRK-2 50 nM, COM1 30 µM, rhodopsin 10-3000 nM)",Calcium release mediated via the Gq-coupled pathway [3],"Effect of increasing concentrations of Gβγ on the inhibition of GRK-2-mediated phosphorylation of rhodopsin ([2]; Figure 3, COM2 3µM, GRK-2 50nM, rhodopsin 100nM, Gβγ 3 to 1000 nM, result at 1000 nM Gβγ)"
"O=C(Nc1ccc(-c2ccc(NC(=O)c3ccc(F)cc3)c(C(=O)O)c2)cc1C(=O)O)c1ccc(F)cc1 [COM1, 4,4'-bis[(4-fluorobenzoyl)amino][1,1'-biphenyl]-3,3'-dicarboxylic acid]",positive inotropic effect,can be reversed,–,–
"O=C(Nc1ccccc1C(=O)O)c1ccc2c(c1)C(=O)N(c1ccc(Oc3ccc(N4C(=O)c5ccc(C(=O)Nc6ccccc6C(=O)O)cc5C4=O)cc3)cc1)C2=O [COM2, 2-[({2-[4-(4-{5-[(2-carboxyanilino)carbonyl]-1,3-dioxo-1,3-dihydro-2H-isoindol-2-yl}phenoxy)phenyl]-1,3-dioxo-2,3-dihydro-1H-isoindol-5-yl}carbonyl)amino]benzoic acid]",–,–,does not have an effect,completely blunted; also recorded: completely reversed
"O=C(C=Cc1ccco1)Nc1ccc(-c2ccc(NC(=O)C=Cc3ccco3)c(C(=O)O)c2)cc1C(=O)O [COM3, 4,4'-bis{[3-(2-furyl)acryloyl]amino}[1,1'-biphenyl]-3,3'-dicarboxylic acid]",–,–,displays an inhibitory potential,–
